Peptide text beside a SMILES is read from it. * marks the point of attachment. Decanoyl = CCCCCCCCCC(=O)*; CH2Cl = ClC*
Legend:
[1] = system: HPVS PsV; details: read-out: IC50, inhibition of uptake of HPVS PsV; PsV 1:6000 dilution, 293TT cells
Protocol: Pseudovirus (PsV) of HPVS was prepared using method described by Buck et al, (Journal of Virology, January 2004; 751-757) and used as a model HPV in this study. The PsV stocks were prepared by co-transfecting human 293TT cells with HPVS viral plasmid p5Shell containing codon-modified papillomavirus capsid genes for L1 and L2 proteins, and pcLucF reporter plasmid containing the luciferase gene for detecting viral infection. The cell lysates containing the capsidized virus was used as the PsV stock. Optimal PsV dilution factor was determined based on the luciferase activity in 293TT cells infected with serially diluted HPVS PsV.
Data were collected on a Molecular Devices Flexstation 3 Microplate Reader using Softmax Pro v5.4.4. Data analysis was performed on Prism software using four parameter logistic model. […] Furin Inhibitor I was used as a positive control for HPVS PsV inhibition since it blocks the viral entry into host cells.
Two runs were performed for each dilution level.

[2] = system: TLR7; test: Ongoing inflammation in PBMC cultures: imiquimod 3 hrs followed by omiganan 21 hrs; assay type: cell-based, human; details: imiquimod alone, PBMC
Protocol: (§1) Primary cell cultures were prepared in RPMI including 5% autologous plasma. Isolated PBMC cells were cultured in 96-well plates at a density of 0.5×10^6cells/well at 37° C., under humidified 5% CO2.
(§2) IL-1β, TNFα, IL-6 and IL-8 were measured simultaneously with a fixed electrochemoluminescence platform based on the sandwich ELISA principle of capture and detection antibodies, produced by MESO SCALE DISCOVERY (MSD, MESO SCALE QUICKPLEX SQ120). The applied assay was the V-PLEX PLUS pro-inflammatory cytokine panel II, including IL-1β, TNFα, IL-6 and IL-8. This assay includes manufacturer-provided control samples with indicated nominal values for comparison. These lyophilized controls, i.e. freeze-dried controls for IL-1β, TNFα, IL-6, IL-8, were prepared freshly at the time of use. QC samples were prepared from the calibrator at 3 different concentrations along the standard curve as multiple aliquots from a single batch and maintained at −20° C. Low, medium and high concentration controls were included in every multiplex assay run to control intra- and inter-assay variation. V-PLEX panels are specific for the detection of human chemokines and cytokines, and combinations have been validated by the manufacturer, to ensure no cross-reactivity.
Briefly, PBMC primary cultures were prepared from 4 donors. […] The readouts for the following cytokine and chemokine release were measured: IL-1β, IL-2, IL-4, IL-6, IL-8 HA, IL-8, IL-12p70, IL-13, IFN-γ, and TNF-α were measured. The cultures were prepared in duplicate.

[3] = system: TLR3/RIG-1/Mda5; test: polyI:C-induced cytokine responses in PBMC cultures with peptide pre-treatment; assay type: cell-based, human; details: 5 or 25 μg/mL peptide, 30 min pre-treatment, 24 hrs
Protocol: as §1, §2
(§3) IFNα was quantified by a sandwich ELISA based on specific capture and detection antibodies for various matrices (MABTECH), according to the manufacturer's instructions. QC samples were prepared from the calibrator at 3 different concentrations along the standard curve as multiple aliquots from a single batch and maintained at −20° C.
as §3, with “IFNβ” for “IFNα”, “(PBL ASSAY SCIENCE),” for “(MABTECH),”, “C. freezer.” for “C.”
(§4) Briefly, PBMC primary cultures were prepared from 4 healthy donors (2 males, 2 females) as described above. […] The cultures were prepared in duplicate and the readouts for pan-IFNα and IFNβ (ELISA) were measured once. Five-point concentration-response curves were constructed for the various treatment conditions in the PBMC cultures, freshly isolated from 4 subjects.

[4] = system: TLR7; test: imiquimod-induced cytokine responses in PBMC cultures with peptide pre-treatment; assay type: cell-based, human
Protocol: as §1, §2, §3
as §3, with “IFNβ” for “IFNα”, “(PBL ASSAY SCIENCE),” for “(MABTECH),”, “C. freezer.” for “C.”
as §4

[5] = system: toll-like receptor 3 (TLR3) pathways / RIG-1/Mda5; test: Qualification of the polyI:C PBMC challenge (cytokine release, 24 hrs); assay type: cell-based, human
Protocol: Peripheral Blood Mononuclear Cells (PBMCs) were isolated from sodium heparinized blood samples from healthy donors using SEPMATE with LYMPHOPREP ([…] TECHNOLOGIES) based on ficoll density centrifugation. Primary cell cultures were prepared in RPMI including 5% autologous plasma. Isolated PBMC cells were cultured in 96-well plates at a density of 0.5×10^6cells/well at 37° C., under humidified 5% CO2.
IL-1β, TNFα, IL-6 and IL-8 were measured simultaneously with a fixed electrochemoluminescence platform based on the sandwich ELISA principle of capture and detection antibodies, produced by MESO SCALE DISCOVERY (MSD, MESO SCALE QUICKPLEX SQ120). The applied assay was the V-PLEX PLUS pro-inflammatory cytokine panel II, including IL-1β, TNFα, IL-6 and IL-8. This assay includes manufacturer-provided control samples with indicated nominal values for comparison. These lyophilized controls, i.e. freeze-dried controls for IL-1β, TNFα, IL-6, IL-8, were prepared freshly at the time of use. […]
IFNα was quantified by a sandwich ELISA based on specific capture and detection antibodies for various matrices (MABTECH), according to the manufacturer's instructions. […]
IFNβ was quantified by a sandwich ELISA based on specific capture and detection antibodies for various matrices (PBL ASSAY SCIENCE), according to the manufacturer's instructions. […]

[6] = 5 or 25 μg/mL peptide, 30 min pre-treatment, 24 hrs
[7] = right-shift of imiquimod concentration response curves

## CCCCCCCCCC(=O)N[C@@H](CCCN=C(N)N)C(=O)N[C@H](C(=O)N[C@@H](CCCCN)C(=O)N[C@@H](CCCN=C(N)N)C(=O)CCl)C(C)C [Furin Inhibitor I, reference compound] (Decanoyl-RVKR-CH2Cl)
[1]
  IC50: 200 nM

## CC(C)Cn1cnc2c(N)nc3ccccc3c21 [Imiquimod, imiquimod]
[2]
  concentration-effect relationship for IL-6 and TNF-α: bell-shaped
  imiquimod concentration inducing IL-6 release: exceeding 0.4 μg/ml
  imiquimod concentration inducing IL-8 release: exceeding 0.4 μg/ml
  imiquimod concentration inducing TNF-α release: exceeding 0.4 μg/ml
  imiquimod concentration needed for IL-10 release: exceeding 2 μg/ml

## LLGDFFRKSKEKIGKEFKRIVQRIKDFLRNLVPRTES (LLGDFFRKSKEKIGKEFKRIVQRIKDFLRNLVPRTES; LL-37 peptide) [antimicrobial peptide belonging to the cathelicidin family, synthesized by ANASPEC]
[3]
  IL-6 responses to polyI:C (TLR3/RIG-1/Mda5): did not significantly affect
  TNFα responses to polyI:C (TLR3/RIG-1/Mda5): did not significantly affect
  polyI:C-driven IL-1β release: did not significantly affect
  spontaneous and polyI:C-driven IL-8 release: strongly inhibited
[3]; PBMC of 4 donors
  interferon responses induced by polyI:C stimulation: enhanced
[4]; [6]
  IL-6 responses to imiquimod (TLR7): inhibited
  TNFα responses to imiquimod (TLR7): inhibited
[4]; 5 or 25 μg/mL peptide, 30 min pre-treatment, 24 hrs, PBMC of 4 donors
  interferon responses in the presence of imiquimod: induced strong interferon responses
[4]; [7]
  IL-1(3 responses to imiquimod (TLR7)): inhibited
  IL-8 responses to imiquimod (TLR7): inhibited

## PolyI:C
[5]; absence of the transfection carrier Lyovec
  PBMC response (cytokines): mild PBMC response
[5]; presence of Lyovec transfection carrier
  PBMC response (cytokines): substantial polyI:C-driven responses
